{"source": "paper PMC8469034", "about": "“Catalytic Asymmetry in Homodimeric H^+-Pumping Membrane Pyrophosphatase Demonstrated by Non-Hydrolyzable Pyrophosphate Analogs” (International Journal of Molecular Sciences, 2021)", "molecules": {"B1": {"name": "Dh-mPPase (Desulfitobacterium hafniense DCB-2) (protein)", "chain": "MDFASTPIWAVLAGLVGLAFAFYFASSVLKESPGNARMQEISLAIQEGAMAFLNRQYKTLIPFVIIIFLILTFLKGWQTAVSFLVGALLSAVAGYVGMGITTRANARTTEAARTSLNKALGVSFRAGAVMGLSVNGLGLIGVAALFLWFQDAETINSFAFGASAIALFARVGGGIYTKAADVGADLVGKVEAGIPEDDPRNPAVIADNVGDNVGDTAGMGADLFESYAATTIAAMLIGAVAFKSLGGGVSGLMLPLMIGIAGILSSIIASFFVRTGENANPQTALNKGLWGTNLLTAIASYAIVQLMITEPVHVSESLTLTANNIFIAIVCGLVVNILIGLLTEYYTSNQKAPAQAIAKASETGAATNIIQGLATGMKSTALPVVVICVATYVSFAAAGIFGIAMAAMAMLSTAGMVVAIDSFGPVADNAGGIAEMADLDPSVRKTTDKLDSVGNTTAAVAKGFAIGSAALTALALFNAYSELAHLDRIDILVPTTIIGLFIGAALPFLFSAFAMEAVGKAAFEMIGEVRRQFREIPGLMEGKAKPDYRACVDISTKAAIRQMIVPGLLAIGSPILVGFLLGKDALGGMLAGGTVSGLLMAIFMANAGGAWDNAKKYVEAGNLGGKGTPTHAAAVIGDTVGDPFKDTAGPSLNALIKVMGTISLIIAPLLI", "notes": "full-length membrane protein expressed in E. coli C41(DE3)ril, assayed in inverted membrane vesicles; homodimer; K+-dependent H+-transporting, EC 7.1.3.1"}}, "key": {"[1]": {"molecular_target": "T1, Dh-mPPase (Desulfitobacterium hafniense, UniProt B8FXV7)", "T1 construct": "gene hppA; full-length membrane protein expressed in E. coli C41(DE3)ril, assayed in inverted membrane vesicles; homodimer; K+-dependent H+-transporting, EC 7.1.3.1", "T1 sequence (B8FXV7 1-671)": "B1 chain", "test": "continuous Pi analyzer assay of PPi hydrolysis, inverted membrane vesicles, global fit", "type": "biochemical", "description": "continuous Pi analyzer assay of PPi hydrolysis, inverted membrane vesicles, global fit on Dh-mPPase"}, "[2]": {"substrate": "O=P(O)(O)OP(=O)(O)O", "test": "cells, lysate or membranes", "type": "biochemical, Desulfitobacterium hafniense", "settings": "varied free Mg2+ (extrapolated to Mg2+ saturation), 50 mM K+, 0.1 M MOPS-KOH pH 7.2, 25 °C, no inhibitor, first site of dimer, macroscopic, substrate counted as Mg2PPi"}}, "note": "Where two headings read alike, the source gives them in different places.", "data": [{"molecule": "O=P(O)(O)NP(=O)(O)O", "note": "[IDP]", "values": [{"measurement": "Ki", "setting": "[1]; read-out: Value / IDP", "value": "4.2 ± 0.2", "unit": "µM"}]}, {"molecule": "CC(O)(P(=O)(O)O)P(=O)(O)O", "note": "[HEDP]", "values": [{"measurement": "Ki", "setting": "[1]; read-out: Value / HEDP", "value": "27 ± 1", "unit": "µM"}]}, {"molecule": "NC(P(=O)(O)O)P(=O)(O)O", "note": "[AMDP]", "values": [{"measurement": "Ki", "setting": "[1]; read-out: Value / AMDP", "value": "0.4 ± 0.02", "unit": "µM"}]}, {"molecule": "B1", "values": [{"measurement": "Km", "setting": "[2]", "value": "2.2 ± 0.1", "unit": "µM"}]}]}
